Legend:
[1] = system: CAMKK2; experiment: KINOMEscan; type: binding; details: 1000 nM
[2] = system: GSK3B; experiment: KINOMEscan; type: binding; details: 1000 nM
[3] = system: TIE1; experiment: KINOMEscan; type: binding; details: 1000 nM
[4] = system: PRKD3; experiment: KINOMEscan; type: binding; details: 1000 nM
[5] = system: AMPK-alpha2; experiment: KINOMEscan; type: binding; details: 1000 nM
[6] = system: JAK1(JH1domain-catalytic); experiment: KINOMEscan; type: binding; details: 1000 nM
[7] = system: ZAK; experiment: KINOMEscan; type: binding; details: 1000 nM
[8] = system: ERN1; experiment: KINOMEscan; type: binding; details: 1000 nM
[9] = system: CDC2L2; experiment: KINOMEscan; type: binding; details: 1000 nM
[10] = system: RSK4(Kin.Dom.1-N-terminal); experiment: KINOMEscan; type: binding; details: 1000 nM
[11] = system: MLK2; experiment: KINOMEscan; type: binding; details: 1000 nM
[12] = system: ADCK4; experiment: KINOMEscan; type: binding; details: 1000 nM
[13] = system: TNIK; experiment: KINOMEscan; type: binding; details: 1000 nM
[14] = system: YANK2; experiment: KINOMEscan; type: binding; details: 1000 nM
[15] = system: NEK2; experiment: KINOMEscan; type: binding; details: 1000 nM
[16] = system: WEE2; experiment: KINOMEscan; type: binding; details: 1000 nM
[17] = system: GAK; experiment: KINOMEscan; type: binding; details: 1000 nM
[18] = system: PAK4; experiment: KINOMEscan; type: binding; details: 1000 nM
[19] = system: ABL1(F317I)-nonphosphorylated; experiment: KINOMEscan; type: binding; details: 1000 nM
[20] = system: CSNK1D; experiment: KINOMEscan; type: binding; details: 1000 nM
[21] = system: LATS1; experiment: KINOMEscan; type: binding; details: 1000 nM
[22] = system: CDK4-cyclinD1; experiment: KINOMEscan; type: binding; details: 1000 nM
[23] = system: SRPK3; experiment: KINOMEscan; type: binding; details: 1000 nM
[24] = system: GRK2; experiment: KINOMEscan; type: binding; details: 1000 nM
[25] = system: DDR1; experiment: KINOMEscan; type: binding; details: 1000 nM
[26] = system: NEK10; experiment: KINOMEscan; type: binding; details: 1000 nM
[27] = system: ALK(C1156Y); experiment: KINOMEscan; type: binding; details: 1000 nM
[28] = system: AURKC; experiment: KINOMEscan; type: binding; details: 1000 nM
[29] = system: ABL1-nonphosphorylated; experiment: KINOMEscan; type: binding; details: 1000 nM
[30] = system: DAPK3; experiment: KINOMEscan; type: binding; details: 1000 nM
[31] = system: CDK4-cyclinD3; experiment: KINOMEscan; type: binding; details: 1000 nM
[32] = system: EGFR(L747-T751del,Sins); experiment: KINOMEscan; type: binding; details: 1000 nM
[33] = system: Mino cells; experiment: NK-cell-mediated ADCC, LDH release cytotoxicity assay, Rituximab; type: cell-based, human
Experimental: The cytotoxicity of NK cells was measured using the CyQUANT™ LDH Cytotoxicity Assay Kit (Invitrogen™, #C20300) according to the manufacturer’s instructions. Briefly, enriched NK cells (6 × 10^5 /ml) were cultured with the same volume of Mino cell and SK-OV-3 cell (1-2 × 10^4 /ml) in a 96-well plate for 4 h with Rituximab and Herceptin (10 μg/mL) and CHMFL-BTK-85 or PCI32765 at 37°C in a humidified CO2 incubator prior to removal of the supernatant for lactate dehydrogenase (LDH) release measurements. Calculate % Cytotoxicity by using the following formula: %Cytotoxicity = (Compound-treated LDH activity-Spontaneous LDH activity)/(Maximum LDH activity-Spontaneous LDH activity)*100.

[34] = system: NEK6; experiment: KINOMEscan; type: binding; details: 1000 nM
[35] = system: HIPK1; experiment: KINOMEscan; type: binding; details: 1000 nM
[36] = system: CDK9; experiment: KINOMEscan; type: binding; details: 1000 nM
[37] = system: IKK-alpha; experiment: KINOMEscan; type: binding; details: 1000 nM
[38] = system: S6K1; experiment: KINOMEscan; type: binding; details: 1000 nM
[39] = molecular target: T1, BMX (Homo sapiens, UniProt P51813); experiment: KINOMEscan; type: binding; details: 1000 nM
T1 construct: purchased Invitrogen (Carlsbad, CA, USA)
T1 sequence (P51813 1-675): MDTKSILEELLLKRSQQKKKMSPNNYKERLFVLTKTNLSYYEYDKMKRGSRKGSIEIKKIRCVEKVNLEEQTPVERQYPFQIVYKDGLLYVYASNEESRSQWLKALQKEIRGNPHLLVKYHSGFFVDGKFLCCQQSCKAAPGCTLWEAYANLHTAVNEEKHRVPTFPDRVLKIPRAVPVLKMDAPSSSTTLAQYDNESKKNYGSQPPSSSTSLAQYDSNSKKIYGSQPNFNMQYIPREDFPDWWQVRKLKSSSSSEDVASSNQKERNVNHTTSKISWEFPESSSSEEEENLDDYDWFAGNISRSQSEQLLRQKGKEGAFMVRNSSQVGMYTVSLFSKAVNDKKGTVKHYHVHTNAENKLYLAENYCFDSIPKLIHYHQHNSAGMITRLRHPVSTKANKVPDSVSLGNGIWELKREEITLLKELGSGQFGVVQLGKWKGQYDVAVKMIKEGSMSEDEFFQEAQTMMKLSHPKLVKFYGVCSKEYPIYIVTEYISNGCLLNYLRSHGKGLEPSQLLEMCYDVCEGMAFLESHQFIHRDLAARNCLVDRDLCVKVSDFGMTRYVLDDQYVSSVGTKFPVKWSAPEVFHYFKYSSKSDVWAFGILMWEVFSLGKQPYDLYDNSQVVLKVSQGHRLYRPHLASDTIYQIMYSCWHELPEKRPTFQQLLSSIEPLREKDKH

[40] = system: MARK3; experiment: KINOMEscan; type: binding; details: 1000 nM
[41] = system: NEK4; experiment: KINOMEscan; type: binding; details: 1000 nM

## C=CC(=O)Nc1cc(Nc2cc(-c3cccc(NC(=O)c4cc5c(s4)CCCC5)c3C)cn(C)c2=O)ccc1N1CCN(CC)CC1 [CHMFL-BTK-85]
[1]
  Percent Control: 100%
[2]
  Percent Control: 100%
[3]
  Percent Control: 87%
[4]
  Percent Control: 100%
[5]
  Percent Control: 89%
[6]
  Percent Control: 96%
[7]
  Percent Control: 99%
[8]
  Percent Control: 100%
[9]
  Percent Control: 89%
[10]
  Percent Control: 100%
[11]
  Percent Control: 90%
[12]
  Percent Control: 100%
[13]
  Percent Control: 99%
[14]
  Percent Control: 77%
[15]
  Percent Control: 99%
[16]
  Percent Control: 96%
[17]
  Percent Control: 100%
[18]
  Percent Control: 100%
[19]
  Percent Control: 99%
[20]
  Percent Control: 82%
[21]
  Percent Control: 100%
[22]
  Percent Control: 100%
[23]
  Percent Control: 83%
[24]
  Percent Control: 100%
[25]
  Percent Control: 100%
[26]
  Percent Control: 100%
[27]
  Percent Control: 100%
[28]
  Percent Control: 100%
[29]
  Percent Control: 76%
[30]
  Percent Control: 65%
[31]
  Percent Control: 88%
[32]
  Percent Control: 93%
[33]
  effect on antibody-dependent NK-cell-mediated cytotoxicity (ADCC): did not affect
[34]
  Percent Control: 100%
[35]
  Percent Control: 75%
[36]
  Percent Control: 100%
[37]
  Percent Control: 100%
[38]
  Percent Control: 100%
[39]
  percent of control binding at 1 µM: 59%
[40]
  Percent Control: 100%
[41]
  Percent Control: 100%
